IC50 data for 3 molecules are collected here from ChEMBL document CHEMBL2434914 (Bioorg Med Chem Lett, 2013).

pIC50: −log10 of the molar value.

The target in experiment [1] is T1, Protein deacetylase HDAC6 (Homo sapiens, UniProt Q9UBN7).
T1 sequence (Q9UBN7 whole entry): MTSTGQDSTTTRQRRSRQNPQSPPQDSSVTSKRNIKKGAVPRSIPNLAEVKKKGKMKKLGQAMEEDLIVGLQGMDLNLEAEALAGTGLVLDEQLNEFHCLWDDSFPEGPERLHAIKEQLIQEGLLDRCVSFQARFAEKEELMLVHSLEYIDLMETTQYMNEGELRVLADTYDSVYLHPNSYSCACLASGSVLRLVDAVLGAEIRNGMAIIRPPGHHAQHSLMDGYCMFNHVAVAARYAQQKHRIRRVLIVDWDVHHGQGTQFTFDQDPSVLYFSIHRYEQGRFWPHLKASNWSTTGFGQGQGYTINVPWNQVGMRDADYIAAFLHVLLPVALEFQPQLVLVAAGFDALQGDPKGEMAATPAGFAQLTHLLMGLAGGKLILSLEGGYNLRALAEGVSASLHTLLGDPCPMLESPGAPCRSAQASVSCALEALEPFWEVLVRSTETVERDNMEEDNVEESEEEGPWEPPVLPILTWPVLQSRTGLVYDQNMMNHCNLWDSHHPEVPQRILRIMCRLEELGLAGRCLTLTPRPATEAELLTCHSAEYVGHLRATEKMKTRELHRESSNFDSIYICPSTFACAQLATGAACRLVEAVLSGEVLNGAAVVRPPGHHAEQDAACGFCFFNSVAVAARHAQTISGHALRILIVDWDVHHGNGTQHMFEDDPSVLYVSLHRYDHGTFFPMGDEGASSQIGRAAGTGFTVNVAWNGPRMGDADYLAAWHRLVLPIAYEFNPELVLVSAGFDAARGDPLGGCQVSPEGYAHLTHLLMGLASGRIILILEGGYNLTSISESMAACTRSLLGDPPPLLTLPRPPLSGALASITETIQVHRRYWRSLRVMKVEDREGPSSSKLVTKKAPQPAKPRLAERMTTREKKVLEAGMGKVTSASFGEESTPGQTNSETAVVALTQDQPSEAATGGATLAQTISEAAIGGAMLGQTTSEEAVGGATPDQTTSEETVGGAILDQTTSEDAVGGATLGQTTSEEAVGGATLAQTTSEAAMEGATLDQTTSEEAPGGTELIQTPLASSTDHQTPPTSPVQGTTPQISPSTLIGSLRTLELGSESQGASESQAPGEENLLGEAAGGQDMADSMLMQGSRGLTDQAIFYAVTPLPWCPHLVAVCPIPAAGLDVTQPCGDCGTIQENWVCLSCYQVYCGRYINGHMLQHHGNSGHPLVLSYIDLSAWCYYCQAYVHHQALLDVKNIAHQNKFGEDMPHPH
The experiment is described as follows: Inhibition of HDAC6 (unknown origin) using MAZ1600 and MAZ1675 as substrate assessed as fluorogenic release of 7-amino-4-methylcoumarin from substrate by optimized homogenous assay.

For experiment [2], the target named is Histone deacetylase 2 (Homo sapiens, UniProt Q92769). Nature of the experiment: Inhibition of HDAC2 (unknown origin) using MAZ1600 and MAZ1675 as substrate assessed as fluorogenic release of 7-amino-4-methylcoumarin from substrate by optimized homogenous assay.
The target in experiment [3] is Histone deacetylase 1 (Homo sapiens, UniProt Q13547). The experiment is described as follows: Inhibition of HDAC1 (unknown origin) using MAZ1600 and MAZ1675 as substrate assessed as fluorogenic release of 7-amino-4-methylcoumarin from substrate by optimized homogenous assay.
The target of experiment [4] is Histone deacetylase 3 (Homo sapiens, UniProt O15379). Nature of the experiment: Inhibition of HDAC3 (unknown origin) using MAZ1600 and MAZ1675 as substrate assessed as fluorogenic release of 7-amino-4-methylcoumarin from substrate by optimized homogenous assay.
Experiment [5] can be described thus: Cytotoxicity against human MM1S cells after 48 hrs by ATPlite assay. It is filed as functional, cell-based. The note with it: MM1.S. (Cellular ATP, detected with luciferase, serves as a proxy for viable cell number.)
Experiment [6] has as its target T2, Histone deacetylase 8 (Homo sapiens, UniProt Q9BY41).
T2 sequence (Q9BY41 whole entry): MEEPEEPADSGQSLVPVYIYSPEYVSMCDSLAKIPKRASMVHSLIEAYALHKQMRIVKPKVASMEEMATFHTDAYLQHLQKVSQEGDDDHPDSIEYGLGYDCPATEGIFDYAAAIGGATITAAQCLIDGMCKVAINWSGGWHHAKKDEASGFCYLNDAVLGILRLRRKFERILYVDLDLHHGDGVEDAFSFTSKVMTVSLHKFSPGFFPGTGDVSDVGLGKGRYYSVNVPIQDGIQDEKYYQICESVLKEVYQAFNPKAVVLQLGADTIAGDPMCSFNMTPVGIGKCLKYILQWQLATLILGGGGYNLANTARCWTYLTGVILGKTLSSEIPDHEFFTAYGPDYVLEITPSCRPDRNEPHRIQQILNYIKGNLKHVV
The experiment is described as follows: Inhibition of HDAC8 (unknown origin) using MAZ1600 and MAZ1675 as substrate assessed as fluorogenic release of 7-amino-4-methylcoumarin from substrate by optimized homogenous assay.

In experiment [7] the target is T3, Histone deacetylase 7 (Homo sapiens, UniProt Q8WUI4).
T3 sequence (Q8WUI4 whole entry): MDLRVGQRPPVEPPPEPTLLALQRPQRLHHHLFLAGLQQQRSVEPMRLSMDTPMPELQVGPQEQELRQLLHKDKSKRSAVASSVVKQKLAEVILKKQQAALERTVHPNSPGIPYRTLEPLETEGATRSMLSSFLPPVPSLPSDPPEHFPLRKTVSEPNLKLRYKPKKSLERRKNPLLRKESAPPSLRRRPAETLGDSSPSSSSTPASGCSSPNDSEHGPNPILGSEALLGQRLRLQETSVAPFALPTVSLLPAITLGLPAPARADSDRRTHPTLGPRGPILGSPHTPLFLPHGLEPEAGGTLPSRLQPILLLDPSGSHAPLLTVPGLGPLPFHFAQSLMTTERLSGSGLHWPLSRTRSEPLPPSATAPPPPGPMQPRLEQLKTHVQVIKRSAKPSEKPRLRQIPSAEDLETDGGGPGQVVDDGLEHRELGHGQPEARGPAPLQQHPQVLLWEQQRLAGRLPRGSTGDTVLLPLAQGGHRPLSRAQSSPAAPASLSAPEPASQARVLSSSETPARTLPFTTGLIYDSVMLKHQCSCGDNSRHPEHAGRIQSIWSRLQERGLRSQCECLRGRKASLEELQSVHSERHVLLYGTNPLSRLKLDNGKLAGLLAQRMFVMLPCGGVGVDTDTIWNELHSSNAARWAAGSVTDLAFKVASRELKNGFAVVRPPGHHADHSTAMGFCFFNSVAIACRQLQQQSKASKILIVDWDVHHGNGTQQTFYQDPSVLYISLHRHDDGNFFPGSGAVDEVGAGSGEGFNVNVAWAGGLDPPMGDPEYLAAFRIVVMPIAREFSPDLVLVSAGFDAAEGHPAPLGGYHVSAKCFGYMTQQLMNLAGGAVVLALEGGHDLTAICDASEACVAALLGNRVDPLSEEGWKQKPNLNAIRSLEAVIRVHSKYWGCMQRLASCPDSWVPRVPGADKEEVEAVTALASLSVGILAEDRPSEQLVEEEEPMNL
The experiment is described as follows: Inhibition of HDAC7 (unknown origin) using MAZ1600 and MAZ1675 as substrate assessed as fluorogenic release of 7-amino-4-methylcoumarin from substrate by optimized homogenous assay.

Sequence of Histone deacetylase 1 (Q13547 whole entry): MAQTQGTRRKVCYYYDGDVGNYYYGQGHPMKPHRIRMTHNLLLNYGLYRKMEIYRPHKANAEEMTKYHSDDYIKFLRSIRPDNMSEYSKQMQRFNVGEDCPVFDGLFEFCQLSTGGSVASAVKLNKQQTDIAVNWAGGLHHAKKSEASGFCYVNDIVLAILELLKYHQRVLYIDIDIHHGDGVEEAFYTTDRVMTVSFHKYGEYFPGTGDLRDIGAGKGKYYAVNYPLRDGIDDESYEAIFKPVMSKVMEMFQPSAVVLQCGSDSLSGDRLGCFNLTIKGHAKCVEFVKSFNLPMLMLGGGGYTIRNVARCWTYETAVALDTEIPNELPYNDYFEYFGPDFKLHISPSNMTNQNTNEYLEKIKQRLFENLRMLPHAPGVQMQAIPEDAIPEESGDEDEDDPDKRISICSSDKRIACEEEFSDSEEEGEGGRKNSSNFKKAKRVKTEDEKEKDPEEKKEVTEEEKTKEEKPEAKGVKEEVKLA
Sequence of Histone deacetylase 2 (Q92769 whole entry): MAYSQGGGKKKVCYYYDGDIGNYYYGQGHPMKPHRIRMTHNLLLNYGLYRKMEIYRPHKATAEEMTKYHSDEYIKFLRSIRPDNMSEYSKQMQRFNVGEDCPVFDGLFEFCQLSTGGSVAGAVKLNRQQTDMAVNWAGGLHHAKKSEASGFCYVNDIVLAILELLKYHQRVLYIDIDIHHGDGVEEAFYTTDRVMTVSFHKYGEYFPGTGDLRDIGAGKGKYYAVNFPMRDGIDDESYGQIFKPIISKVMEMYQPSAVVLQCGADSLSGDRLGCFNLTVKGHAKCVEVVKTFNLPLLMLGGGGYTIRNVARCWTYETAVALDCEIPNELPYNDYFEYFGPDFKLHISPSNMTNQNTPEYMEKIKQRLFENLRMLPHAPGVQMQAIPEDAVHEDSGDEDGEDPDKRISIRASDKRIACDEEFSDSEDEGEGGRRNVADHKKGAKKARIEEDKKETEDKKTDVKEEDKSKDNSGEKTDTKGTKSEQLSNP
Sequence of Histone deacetylase 3 (O15379 whole entry): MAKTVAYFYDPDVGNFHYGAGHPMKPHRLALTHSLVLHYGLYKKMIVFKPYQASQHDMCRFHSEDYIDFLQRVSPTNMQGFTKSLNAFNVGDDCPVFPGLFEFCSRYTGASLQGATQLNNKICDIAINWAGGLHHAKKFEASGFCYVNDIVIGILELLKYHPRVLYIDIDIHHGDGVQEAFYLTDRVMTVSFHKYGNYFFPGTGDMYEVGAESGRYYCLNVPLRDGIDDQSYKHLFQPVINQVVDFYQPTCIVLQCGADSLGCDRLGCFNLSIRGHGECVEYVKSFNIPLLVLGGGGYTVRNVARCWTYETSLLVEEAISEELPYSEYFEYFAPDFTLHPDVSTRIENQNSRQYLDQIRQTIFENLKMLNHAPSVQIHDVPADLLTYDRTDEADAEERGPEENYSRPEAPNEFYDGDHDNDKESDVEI

Regarding `CCCCCCCC(=O)SCC/C=C/[C@@H]1CC(=O)NCc2nc(co2)C2=N[C@@](C)(CS2)C(=O)N[C@@H](C(C)C)C(=O)O1`, the pIC50 – broadly, the IC50 on a negative log10 scale, so that one unit is a factor of ten – was 5.96 in experiment [1]; 5.68 in experiment [2]; 6.02 in experiment [3]; 5.72 in experiment [4]; 6.92 in experiment [5].

For the molecule `CC(C)[C@@H]1NC(=O)[C@]2(C)CSC(=N2)c2coc(n2)CNC(=O)C[C@@H](/C=C/CCS)OC1=O`, the pIC50 in experiment [1] was 7.01; in experiment [6], 5.92; in experiment [2], 7.70; in experiment [3] it was 8.36; in experiment [7], 6.02; in experiment [4], 8.14. The same molecule gave a pIC50 in experiment [5] of 5.21.

On to `CC(C)[C@@H]1NC(=O)[C@]2(C)CSC(=N2)c2coc(n2)CNC(=O)C[C@@H](/C=C/CCSSCC/C=C/[C@@H]2CC(=O)NCc3nc(co3)C3=N[C@@](C)(CS3)C(=O)N[C@@H](C(C)C)C(=O)O2)OC1=O`, for which the pIC50 in experiment [1] was 7.30; in experiment [2], 5.89; in experiment [3], 6.82; in experiment [4] it was 6.26; in experiment [5], 6.04.
